{"source": "patent US5686422A", "about": "“Synthetic inhibitors of mammalian collagenase” (Research Corporation Technologies, Inc., priority 1995, dated 1997)", "key": {"[1]": {"target": "T1, Collagenase, purified from sodium hydroxide burned rabbit corneal tissue (Oryctolagus cuniculus, UniProt P13943)", "T1 sequence (P13943 99-468)": "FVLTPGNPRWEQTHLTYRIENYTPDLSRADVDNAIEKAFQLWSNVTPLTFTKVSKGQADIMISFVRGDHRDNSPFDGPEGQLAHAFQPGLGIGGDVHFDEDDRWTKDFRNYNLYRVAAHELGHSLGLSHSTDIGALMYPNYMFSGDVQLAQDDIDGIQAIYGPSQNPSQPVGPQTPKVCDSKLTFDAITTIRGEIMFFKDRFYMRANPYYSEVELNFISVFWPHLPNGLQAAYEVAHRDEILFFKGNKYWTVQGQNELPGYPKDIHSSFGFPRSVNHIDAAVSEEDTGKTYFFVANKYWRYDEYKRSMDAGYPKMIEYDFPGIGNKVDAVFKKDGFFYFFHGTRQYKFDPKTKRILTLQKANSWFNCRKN", "assay": "Qualitative SDS-PAGE assay of collagen degradation by corneal collagenase", "type": "biochemical", "method": "Collagenase, purified from sodium hydroxide burned rabbit corneal tissue, was placed in a reaction mixture containing Type I collagen (0.4 mg/ml), 0.005M Tris-HCl, 0.2M NaCl, 0.25M glucose, pH 7.7. Reactions were initiated by adding the enzyme to the reaction mixture; inhibitory potency was estimated by running separate reaction mixtures in which the peptide HSCH2 CH[CH2 CH(CH3)2 ]--CO-Phe-Ala-NH2, made in accordance with Example 2, was added in varying concentrations to the mixture and incubated for 3 hours at 30° C. Other compounds were assayed for inhibitory potency in a similar manner. Reaction mixtures were quenched by placing them on ice and then adding one volume of sample dilution buffer followed by boiling the mixtures in a water bath for 5 minutes. Collagen degradation products were resolved from undegraded collagen by sodium dodecylsulfate-polyacylamide gel electrophoresis (SDS-PAGE) followed by staining with Coomassie Blue R-250. The SDS-PAGE assay was used to qualitatively evaluate the inhibitory capacity of the compounds tested. An estimate of inhibitory potency was then noted by visualizing the concentration range which produced 50% inhibition of collagen degradation.\nThe results of this qualitative assay are expressed as an IC50 range (Table II). For example, doxycyline's IC50 is 0.2 to 1.0 mM. That is, a doxycycline concentration of 0.2 to 1.0 mM is required to obtain a 50% inhibition of collagen degradation. These estimated ranges were then used to predict the inhibitor concentrations tested in the quantitative analysis detailed below."}, "PA elastase": {"target": "T2, PA elastase (Pseudomonas aeruginosa, UniProt P14756)", "T2 construct": "made in house; host or cells: native secreted enzyme from a virulent Pseudomonas aeruginosa strain grown on tryptone glucose extract agar", "T2 sequence (P14756 198-498)": "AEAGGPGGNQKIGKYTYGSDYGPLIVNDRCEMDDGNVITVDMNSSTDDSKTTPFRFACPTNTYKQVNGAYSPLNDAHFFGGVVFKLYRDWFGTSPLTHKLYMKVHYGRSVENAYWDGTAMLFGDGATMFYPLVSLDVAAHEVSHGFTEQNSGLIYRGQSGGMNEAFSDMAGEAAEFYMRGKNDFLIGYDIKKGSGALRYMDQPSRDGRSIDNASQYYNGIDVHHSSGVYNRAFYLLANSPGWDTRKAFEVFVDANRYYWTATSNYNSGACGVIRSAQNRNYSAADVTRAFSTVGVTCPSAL", "assay": "biochemical", "method": "Pseudomonas aeruginosa proteases were obtained by overnight incubation of virulent strain of Pseudomonas aeruginosa (PA) on tryptone glucose extract agar.\nThe PA elastase was tested in accordance with the procedures analogous to those conducted on purified collagenase in Example 5.\nExample 7 was repeated using three corneal ulceration treatments of the prior art: Tetracycline, minocycline and doxycycline."}, "[2]": {"target": "T1, Collagenase, purified from sodium hydroxide burned rabbit corneal tissue", "assay": "Quantitative fluorometric assay with fluorogenic Dnp-peptide substrate", "type": "biochemical", "conditions": "Dnp-substrate 20 uM, 37° C. for 2 to 3 minutes", "method": "Quantitative determination of collagenase activity was carried out with a fluorogenic peptide substrate, Dnp-Pro-Leu-Gly-Leu-Trp-Ala-D-Arg-NH2,which collagenase cleaves to produce Dnp-Pro-Leu-Gly and Leu-Trp-Ala-D-Arg-NH2. The rate of production of the tetrapeptide was monitored with an AMINCO-BOWMAN® spectrofluorometer (excitation wavelength of 280 nm and emission wavelength of 346 nm). This test was repeated using high performance liquid chromatography (HPLC) to separate and detect the two cleaved collagenase products.\nReaction mixtures for both the fluorometric and HPLC assays contained 0.05M Tris-HCl, 0.2M NaCl, 10 mM CaCl2 and Dnp-substrate 20 uM, pH 7.7. The peptide of Example 2 was added to the assay mixtures at varying concentrations. The incubation conditions differed between the two assays; the fluorometric reaction mixtures were incubated at 37° C. for 2 to 3 minutes whereas the HPLC reaction mixtures were incubated at 37° C. for 3 hours. This was necessary because the HPLC assay was not as sensitive in detecting the substrate cleavage products as the fluorometric assay. IC50 values were interpolated from plots of log[Ao /Ai)-1[ vs. log[Inhibitor], where Ao is the activity observed in the absence of inhibitor and Ai is the activity observed in the presence of inhibitor at concentration i."}, "pig synovial collagenase": {"target": "T3, pig synovial collagenase (Sus scrofa, UniProt P21692)", "T3 construct": "pig synovial collagenase (0.04 μg protein); from tissue; host or cells: pig synovium (only from the enzyme's name; preparation not described)", "T3 sequence (P21692 100-469)": "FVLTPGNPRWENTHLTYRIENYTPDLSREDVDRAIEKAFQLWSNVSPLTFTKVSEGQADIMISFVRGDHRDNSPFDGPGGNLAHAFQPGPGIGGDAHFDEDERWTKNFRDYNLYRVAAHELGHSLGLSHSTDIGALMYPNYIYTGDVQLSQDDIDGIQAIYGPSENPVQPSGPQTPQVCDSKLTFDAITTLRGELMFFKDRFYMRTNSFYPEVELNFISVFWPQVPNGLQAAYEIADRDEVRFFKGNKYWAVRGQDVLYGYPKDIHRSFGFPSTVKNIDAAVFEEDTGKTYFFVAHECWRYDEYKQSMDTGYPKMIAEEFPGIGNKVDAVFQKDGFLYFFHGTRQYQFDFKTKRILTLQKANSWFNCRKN", "assay": "Collagenase assay: degradation of type I collagen (SDS-PAGE/densitometry or spectrophotometric)", "type": "biochemical", "method": "Collagenase activity was determined after electrophoretic separation of degraded from undegraded type I collagen by polyacrylamide gel electrophoresis and densitometry as follows.\nAcid-soluble calf skin collagen (0.25 mg/ml, approximately […]) was incubated at 35° C. for 1 hr with pig synovial collagenase (0.04 μg protein) in 0.05M tris-HCL, 0.2M NaCl, 0.25M glucose, 5 mM CaCl2, 10% dimethyl sulfoxide, pH 7.6 in a total reaction volume of 20 μL. Inhibitors were dissolved in dimethyl sulfoxide and the sulfhydryl titer determined in stock solutions immediately prior to use by the colorimetric procedure of Ellman [Ellman, G. L., Arch. Biochem. Biophys. 82: 70-77 (1959)]. At the end of the reaction period, the reactions were stopped by placing on ice and 20 μL sample dilution buffer was added [Laemmli, U. K., Nature (London) 227: 680-685 (1970)]. The samples were then placed in a boiling water bath for 2-5 minutes after which collagen degradation products were separated from undegraded collagen by sodium dodecyl sulfate-polyacrylamide electrophoresis according to the procedure of Laemmli [1970]. The electrophoretograms were fixed in isopropanol/acetic acid/water (100:40:300) and stained with 1% Coomassie Blue R-250. The percentage of collagen alpha chains degraded was estimated by scanning densitometry and integration of peak areas [Welgus et al., J. Biol. Chem. 256: 9511-9515 (1981)].\nA spectrophotometric method was also utilized in some cases to determine collagenase activity [Lindy, S. et al., European J. Biochem. 156: 1-4 (1986)]. The conditions were the same as given above except that the reaction volume was 200 μL, the temperature was 37° C. and the enzyme concentration was 1.2 μg protein/ml. Stock solutions of inhibitors were prepared in 1 mM acetic acid in ethanol and the sulfhydryl titer determined colorimetrically by the method of Ellman […]. The reaction progress was monitored for 6-10 minutes by following the increase in absorbance at 227 nm that accompanies denaturation of the collagen fragments. Initial rates of collagen degradation were determined from the linear portion of the progress curves."}, "[3]": {"conditions": "SDS-PAGE, visual estimate, Type I collagen 0.4 mg/ml, 3 hours at 30° C."}, "[4]": {"conditions": "mixture containing approximately equal amounts of the two diastereomers, read-out: IC50 (uM), diastereomers not resolved"}, "[5]": {"conditions": "fast-eluting diastereomer (C18 reversed phase), approximate concentration giving 50% inhibition of collagen degradation, read-out: IC50 (uM) Fast Isomer"}, "[6]": {"conditions": "slow-eluting diastereomer (C18 reversed phase), approximate concentration giving 50% inhibition of collagen degradation, read-out: IC50 (uM) Slow Isomer"}}, "note": "Read-outs that look alike come from different tables or passages of the source.", "data": [{"smiles": "O=C1O[C@H]([C@@H](O)CO)C([O-])=C1O.[Na+]", "note": "[Sodium Ascorbate]", "values": [{"measurement": "Estimated IC50 Range (mM)", "setting": "[1]; [3]", "result": "No Inhibition"}]}, {"smiles": "N[C@@H](CS)C(=O)O", "note": "[Cysteine, cysteine]", "values": [{"measurement": "Estimated IC50 Range", "setting": "[1]; [3]", "result": "3 to 10", "unit": "mM"}]}, {"smiles": "CN(C)c1ccc(O)c2c1C[C@H]1C[C@H]3[C@H](N(C)C)C(O)=C(C(N)=O)C(=O)[C@@]3(O)C(O)=C1C2=O", "note": "[Minocycline, minocycline]", "values": [{"measurement": "IC50", "setting": "PA elastase", "result": 260, "unit": "µM"}]}, {"smiles": "O=C([O-])CC(O)(CC(=O)[O-])C(=O)[O-].[Na+].[Na+].[Na+]", "note": "[Sodium Citrate, sodium citrate]", "values": [{"measurement": "IC50", "setting": "[2]", "result": 45, "unit": "mM"}, {"measurement": "reversal of inhibition by excess Ca++", "setting": "[1]; SDS-PAGE assay, footnote to Table II", "result": "Reversed by addition of excess Ca++"}, {"measurement": "Estimated IC50 Range", "setting": "[1]; [3]", "result": "10 to 30", "unit": "mM"}]}, {"smiles": "CN(C)[C@@H]1C(O)=C(C(N)=O)C(=O)[C@@]2(O)C(O)=C3C(=O)c4c(O)cccc4[C@@](C)(O)[C@H]3C[C@@H]12", "note": "[Tetracycline, tetracycline]", "values": [{"measurement": "IC50", "setting": "PA elastase", "result": 660, "unit": "µM"}, {"measurement": "Estimated IC50 Range", "setting": "[1]; [3]", "result": "1 to 2", "unit": "mM"}]}, {"smiles": "CC(C)CC(CS)C(=O)N[C@@H](Cc1c[nH]c2ccccc12)C(=O)N[C@@H](C)C(N)=O", "note": "(some centres unmarked) [Compound 4, HSCH2 CH[CH2 CH(CH3)2]COTrpAlaNH2]", "values": [{"measurement": "IC50", "setting": "pig synovial collagenase; [4]", "result": 0.05, "unit": "µM"}]}, {"smiles": "CC(C)CC(CS)C(=O)N[C@@H](Cc1ccccc1)C(=O)N[C@@H](Cc1ccccc1)C(N)=O", "note": "(some centres unmarked) [Compound 6, HSCH2 CH[CH2 CH(CH3)2]COPhePheNH2]", "values": [{"measurement": "IC50", "setting": "pig synovial collagenase; [4]", "result": 2, "unit": "µM"}]}, {"smiles": "C[C@H]1c2cccc(O)c2C(=O)C2=C(O)[C@]3(O)C(=O)C(C(N)=O)=C(O)[C@@H](N(C)C)[C@@H]3[C@@H](O)[C@@H]21", "note": "[Doxycycline, doxycycline]", "values": [{"measurement": "IC50", "setting": "PA elastase", "result": 110, "unit": "µM"}, {"measurement": "Estimated IC50 Range", "setting": "[1]; [3]", "result": "0.2 to 1", "unit": "mM"}]}, {"smiles": "CC(=O)N[C@@H](CS)C(=O)O", "note": "[Acetylcysteine, acetylcysteine]", "values": [{"measurement": "Estimated IC50 Range", "setting": "[1]; [3]", "result": "10 to 30", "unit": "mM"}]}, {"smiles": "CC(C)CC(CS)C(=O)N[C@@H](Cc1ccccc1)C(=O)N[C@@H](C)C(N)=O", "note": "(stereo partly drawn) [Compound 3, 2-[(R,S)-Mercaptomethyl]-4-methylpentanoyl-L-phenylalanyl-L-alanine amide]", "values": [{"measurement": "IC50", "setting": "pig synovial collagenase; [5]", "result": 0.3, "unit": "µM"}, {"measurement": "IC50", "setting": "pig synovial collagenase; [6]", "result": 0.04, "unit": "µM"}, {"measurement": "IC50", "setting": "PA elastase", "result": 0.3, "unit": "µM"}]}, {"smiles": "CC(C)CC(CS)C(=O)N[C@@H](Cc1ccccc1)C(=O)N[C@@H](CC(C)C)C(N)=O", "note": "(stereo partly drawn) [Compound 5, 2-[(R,S)-Mercaptomethyl]-4-methylpentanoyl-L-phenylalanyl-L-leucine amide]", "values": [{"measurement": "IC50", "setting": "pig synovial collagenase; [5]", "result": 10, "unit": "µM"}, {"measurement": "IC50", "setting": "pig synovial collagenase; [6]", "result": 4, "unit": "µM"}]}, {"smiles": "CC(C)CC(CS)C(=O)N[C@@H](Cc1ccc2ccccc2c1)C(=O)N[C@@H](C)C(N)=O", "note": "(some centres unmarked) [Compound 7, HSCH2 CH[CH2 CH(CH3)2]CCNalAlaNH2]", "values": [{"measurement": "IC50", "setting": "pig synovial collagenase; [4]", "result": 0.03, "unit": "µM"}]}, {"smiles": "CCOC(=O)[C@H](C)NC(=O)[C@H](CCCCNC(=O)OC(C)(C)C)NC(=O)C(CS)CC(C)C", "note": "(some centres unmarked)", "values": [{"measurement": "IC50", "setting": "pig synovial collagenase; [4]", "result": 4, "unit": "µM"}]}]}
